# Assays:
# Assay type in all cases: physicochemical
# [1] = Dissolution test of mist particles (JP12 paddle method); conditions: for T 50% (dissolution rate of FK506): distilled water 37° C., paddle 50 rpm
# Description: Dissolution Test FK506 dissolution from the mist particles after firing FK506 aerosol composition was examined in distilled water at 37° C. using the paddle method at 50 rpm, according to the dissolution test method in JP12. The emitted dose from aerosol composition was adjusted to be one mg FK506 as a total in the test fluid. FK506 was measured by HPLC method. The FK506 aerosol compositions were prepared according to a similar manner to that of Example 2.
# [2] = Effect of MCT content on the solubility of FK506 in HFAs; set-up: key to Solubility of FK506 in HFAs (solution or suspension): ∘: solution; —: suspension
# Description: The addition of MCT enables the filling of FK506 as a solution into aerosol system. As a result, the change of spray performance will not be caused by aggregation of FK506 crystalline particles and the emitted dose uniformity of FK506 can be more reliable. The aerosol compositions used in this study were prepared according to a similar manner to that of Example 2.
# [3] = Aerodynamic particle size distribution (USP23 Apparatus 1, multistage cascade impactor); conditions: for Mass Median Aerodynamic Diameter: 0.05% FK506 aerosol composition
# Description: Aerodynamic Particle Size Distribution According to the conventional method in USP23 (Apparatus 1), the aerodynamic particle size distribution was assessed from FK506 amount in each stage after applying one mg FK506 to multistage cascade impactor by firing FK506 aerosol composition. FK506 measurement was conducted by HPLC method and the MMAD was calculated from the particle size distribution. The FK506 aerosol compositions were prepared according to a similar manner to that of the below-mentioned Example 2.
smiles,measurement,setting,value
"C=CC[C@@H]1/C=C(\C)C[C@H](C)C[C@H](OC)[C@H]2O[C@@](O)(C(=O)C(=O)N3CCCC[C@H]3C(=O)O[C@H](/C(C)=C/[C@@H]3CC[C@@H](O)[C@H](OC)C3)[C@H](C)[C@@H](O)CC1=O)[C@H](C)C[C@@H]2OC [FK506, 17-allyl-1,14-dihydroxy-12-[2-(4-hydroxy-3-methoxycyclohexyl)-1-methylvinyl]-23,25-dimethoxy-13,19,21,27-tetramethyl-11,28-dioxa-4-azatricyclo-[22.3.1.0^4,9]octacos-18-ene-2,3,10,16-tetraone]",T 50% (dissolution rate of FK506),"[1]; HFA-134a, MCT content 0.5%, FK506 0.05%",29 min
same,T 50% (dissolution rate of FK506),"[1]; HFA-134a, MCT content 0.5%, FK506 0.2%",11 min
same,T 50% (dissolution rate of FK506),"[1]; HFA-134a, MCT content 2%, FK506 0.05%",41 min
same,T 50% (dissolution rate of FK506),"[1]; HFA-134a, MCT content 2%, FK506 0.2%",25 min
same,T 50% (dissolution rate of FK506),"[1]; HFA-227, MCT content 0%, FK506 0.05%",5 min
same,T 50% (dissolution rate of FK506),"[1]; HFA-227, MCT content 0%, FK506 0.2%",9 min
same,T 50% (dissolution rate of FK506),"[1]; HFA-227, MCT content 0.5%, FK506 0.05%",30 min
same,T 50% (dissolution rate of FK506),"[1]; HFA-227, MCT content 0.5%, FK506 0.2%",12 min
same,T 50% (dissolution rate of FK506),"[1]; HFA-227, MCT content 1%, FK506 0.05%",38 min
same,T 50% (dissolution rate of FK506),"[1]; HFA-227, MCT content 1%, FK506 0.2%",15 min
same,T 50% (dissolution rate of FK506),"[1]; HFA-227, MCT content 2%, FK506 0.05%",43 min
same,T 50% (dissolution rate of FK506),"[1]; HFA-227, MCT content 2%, FK506 0.2%",28 min
same,T 50% (dissolution rate of FK506),"[1]; HFA-227, MCT content 5%, FK506 0.05%",51 min
same,T 50% (dissolution rate of FK506),"[1]; HFA-227, MCT content 5%, FK506 0.2%",37 min
same,"Release rate of FK506 from the mist particles, trend",[1]; addition of MCT,declined with addition of MCT
same,Solubility of FK506 in HFAs (solution or suspension),"[2]; MCT content 0.05%, FK506 content 0.05 w/v % in HFA-134a",∘
same,Solubility of FK506 in HFAs (solution or suspension),"[2]; MCT content 0.05%, FK506 content 0.05 w/v % in HFA-227",∘
same,Solubility of FK506 in HFAs (solution or suspension),"[2]; MCT content 0.05%, FK506 content 0.1 w/v % in HFA-227",—
same,Solubility of FK506 in HFAs (solution or suspension),"[2]; MCT content 0.05%, FK506 content 0.2 w/v % in HFA-134a",—
same,Solubility of FK506 in HFAs (solution or suspension),"[2]; MCT content 0.05%, FK506 content 0.2 w/v % in HFA-227",—
same,Solubility of FK506 in HFAs (solution or suspension),"[2]; MCT content 0.05%, FK506 content 0.5 w/v % in HFA-227",—
same,Solubility of FK506 in HFAs (solution or suspension),"[2]; MCT content 0.5%, FK506 content 0.05 w/v % in HFA-134a",∘
same,Solubility of FK506 in HFAs (solution or suspension),"[2]; MCT content 0.5%, FK506 content 0.05 w/v % in HFA-227",∘
same,Solubility of FK506 in HFAs (solution or suspension),"[2]; MCT content 0.5%, FK506 content 0.1 w/v % in HFA-227",∘
same,Solubility of FK506 in HFAs (solution or suspension),"[2]; MCT content 0.5%, FK506 content 0.2 w/v % in HFA-134a",—
same,Solubility of FK506 in HFAs (solution or suspension),"[2]; MCT content 0.5%, FK506 content 0.2 w/v % in HFA-227",—
same,Solubility of FK506 in HFAs (solution or suspension),"[2]; MCT content 0.5%, FK506 content 0.5 w/v % in HFA-227",—
same,Solubility of FK506 in HFAs (solution or suspension),"[2]; MCT content 2%, FK506 content 0.05 w/v % in HFA-134a",∘
same,Solubility of FK506 in HFAs (solution or suspension),"[2]; MCT content 2%, FK506 content 0.05 w/v % in HFA-227",∘
same,Solubility of FK506 in HFAs (solution or suspension),"[2]; MCT content 2%, FK506 content 0.1 w/v % in HFA-227",∘
same,Solubility of FK506 in HFAs (solution or suspension),"[2]; MCT content 2%, FK506 content 0.2 w/v % in HFA-134a",∘
same,Solubility of FK506 in HFAs (solution or suspension),"[2]; MCT content 2%, FK506 content 0.2 w/v % in HFA-227",∘
same,Solubility of FK506 in HFAs (solution or suspension),"[2]; MCT content 2%, FK506 content 0.5 w/v % in HFA-227",—
same,Solubility of FK506 in HFAs (solution or suspension),"[2]; MCT content 5%, FK506 content 0.05 w/v % in HFA-134a",∘
same,Solubility of FK506 in HFAs (solution or suspension),"[2]; MCT content 5%, FK506 content 0.05 w/v % in HFA-227",∘
same,Solubility of FK506 in HFAs (solution or suspension),"[2]; MCT content 5%, FK506 content 0.1 w/v % in HFA-227",∘
same,Solubility of FK506 in HFAs (solution or suspension),"[2]; MCT content 5%, FK506 content 0.2 w/v % in HFA-134a",∘
same,Solubility of FK506 in HFAs (solution or suspension),"[2]; MCT content 5%, FK506 content 0.2 w/v % in HFA-227",∘
same,Solubility of FK506 in HFAs (solution or suspension),"[2]; MCT content 5%, FK506 content 0.5 w/v % in HFA-227",—
same,Solubility of FK506 (change),[2]; by mixing MCT into liquefied hydrofluoroalkanes,increased up
same,Mass Median Aerodynamic Diameter,"[3]; propellant HFA-134a, MCT content 0.5%",1.6 μm
same,Mass Median Aerodynamic Diameter,"[3]; propellant HFA-227, MCT content 0.05%",1.5 μm
same,Mass Median Aerodynamic Diameter,"[3]; propellant HFA-227, MCT content 0.5%",1.7 μm
same,Mass Median Aerodynamic Diameter,"[3]; propellant HFA-227, MCT content 1%",2.5 μm
same,Mass Median Aerodynamic Diameter,"[3]; propellant HFA-227, MCT content 2%",3.1 μm
same,Mass Median Aerodynamic Diameter,"[3]; propellant HFA-227, MCT content 5%",4.0 μm
same,"Mass median aerodynamic diameter (MMAD), trend","[3]; FK506 aerosol composition, addition of MCT",increased in proportion to MCT amount added
